Molecular target: T1, KRAS G12C protein (Homo sapiens, UniProt P01116, G12C)
T1 construct: H358 cells (ATCC, CRL-5807) expressing KRAS G12C protein; host or cells: H358 (NCI-H358) cells
Experiment: ERK protein phosphorylation assay (p-ERK) in H358 cells
Format: cell-based
Design: scale not given here
Conditions: H358 cells expressing KRAS G12C protein, 3 h incubation with compound; read-out: IC50, inhibiting phosphorylation of KRAS G12C protein-mediated downstream signaling (p-ERK)
Method: The cells were cultured in a 5% CO2 cell incubator for 16 h. The serially diluted compound was added to the cell medium with Echo550 at a final DMSO concentration of 0.5%, and the incubation was continued for 3 h. Then 8% paraformaldehyde (Solarbio, P1112) was added at 40 μL/well, followed by incubation at room temperature for 20 min. After one washing with PBS, cold 100% methanol was added at 40 μL/well for permeabilization for 10 min. […] Washing with PBST was performed 3 times, with 2 min of incubation for each washing. […] Washing with PBST was performed 3 times, with 2 min of incubation for each washing. Finally, the cell culture plate was inverted and centrifuged at 1000 rpm for 1 min, after which fluorescence signals were read using Odyssey CLx.

T1 sequence (P01116 1-188 isoform P01116-2 G12C): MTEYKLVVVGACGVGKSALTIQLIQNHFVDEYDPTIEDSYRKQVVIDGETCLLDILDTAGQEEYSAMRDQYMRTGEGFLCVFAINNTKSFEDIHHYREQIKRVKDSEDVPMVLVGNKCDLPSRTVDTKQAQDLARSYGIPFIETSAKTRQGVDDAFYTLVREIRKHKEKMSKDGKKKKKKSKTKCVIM

Structure (SMILES) | IC50
[2H]C([2H])([2H])N1CCC[C@H]1COc1nc2c(c(N3CCN(C(=O)C=C)[C@@H](CC#N)C3)n1)CCN(c1cccc3cccc([11CH3])c13)C2 [Compound 22, 2-((S)-1-acryloyl-4-(2-(((S)-1-(methyl-d3)pyrrolidin-2-yl)methoxy)-7-(8-(methyl-^11C)naphthalen-1-yl)-5,6,7,8-tetrahydropyrido[3,4-d]pyrimidin-4-yl)piperazin-2-yl)acetonitrile] | < 1000 nM
[2H]C([2H])([2H])C([2H])([2H])N1CCC[C@H]1COc1nc2c(c(N3CCN(C(=O)C=C)[C@@H](CC#N)C3)n1)CCN(c1cccc3cccc(Cl)c13)C2 [Compound 36, 2-((S)-1-acryloyl-4-(7-(8-chloronaphthalene-1-yl)-2-(((S)-1-(ethyl-d5)pyrrolidin-2-yl)methoxy)-5,6,7,8-tetrahydropyrido[3,4-d]pyrimidin-4-yl)piperazin-2-yl)acetonitrile] | < 1000 nM
[2H]C([2H])([2H])c1cccc2cccc(N3CCc4c(nc(OC[C@@H]5CCCN5C([2H])([2H])[2H])nc4N4CCN(C(=O)C(=C)F)C[C@@H]4C)C3)c12 [Compound 23, 2-fluoro-1-((S)-3-methyl-4-(7-(8-(methyl-d3)naphthalen-1-yl)-2-(((S)-1-(methyl-d3)pyrrolidin-2-yl)methoxy)-5,6,7,8-tetrahydropyrido[3,4-d]pyrimidin-4-yl)piperazin-1-yl)-2-propen-1-one] | < 1000 nM
[2H]C([2H])([2H])C([2H])(N1CCC[C@H]1COc1nc2c(c(N3CCN(C(=O)C=C)[C@@H](CC#N)C3)n1)CCN(c1cccc3cccc(C)c13)C2)C([2H])([2H])[2H] [Compound 37, 2-((S)-1-acryloyl-4-(7-(8-methylnaphthalen-1-yl)-2-(((S)-1-(isopropyl-d7)pyrrolidin-2-yl)methoxy)-5,6,7,8-tetrahydropyrido[3,4-d]pyrimidin-4-yl)piperazin-2-yl)acetonitrile] | < 1000 nM
C=CC(=O)N1CCN(c2nc(OC[C@@H]3CCCN3[13CH3])nc3c2CCN(c2cccc4cccc(C)c24)C3)C[C@@H]1CC#N [Compound 26, 2-((S)-1-acryloyl-4-(2-(((S)-1-(methyl-^13C)pyrrolidin-2-yl)methoxy)-7-(8-methylnaphthalen-1-yl)-5,6,7,8-tetrahydropyrido[3,4-d]pyrimidin-4-yl)piperazin-2-yl)acetonitrile] | < 1000 nM
C=C(F)C(=O)N1CCN(c2nc(OC[C@@H]3CCCN3C)nc3c2CCN(c2cccc4cccc([13CH3])c24)C3)C[C@@H]1CC#N [Compound 11, 2-((S)-1-(2-fluoroacryloyl)-4-(7-(8-(methyl-^13C)naphthalen-1-yl)-2-(((S)-1-methylpyrrolidin-2-yl)methoxy)-5,6,7,8-tetrahydropyrido[3,4-d]pyrimidin-4-yl)piperazin-2-yl)acetonitrile] | < 1000 nM
C=C(F)C(=O)N1CCN(c2nc(OC[C@@H]3CCCN3C)nc3c2CCN(c2cncc4cccc([13CH3])c24)C3)C[C@@H]1CC#N [Compound 16, 2-((S)-1-(2-fluoroacryloyl)-4-(7-(5-(methyl-^13C)isoquinolin-4-yl)-2-(((S)-1-methylpyrrolidin-2-yl)methoxy)-5,6,7,8-tetrahydropyrido[3,4-d]pyrimidin-4-yl)piperazin-2-yl)acetonitrile] | < 1000 nM
[2H]C([2H])([2H])CN1CCC[C@H]1COc1nc2c(c(N3CCN(C(=O)C=C)[C@@H](CC#N)C3)n1)CCN(c1cccc3cccc(Cl)c13)C2 [Compound 34, 2-((S)-1-acryloyl-4-(7-(8-chloronaphthalene-1-yl)-2-(((S)-1-(ethyl-2,2,2-d3)pyrrolidin-2-yl)methoxy)-5,6,7,8-tetrahydropyrido[3,4-d]pyrimidin-4-yl)piperazin-2-yl)acetonitrile] | < 1000 nM
[2H]C([2H])([2H])N1CCC[C@H]1COc1nc2c(c(N3CCN(C(=O)C(=C)F)[C@@H](CC#N)C3)n1)CCN(c1cccc3cccc([14CH3])c13)C2 [Compound 29, 2-((S)-1-(2-fluoroacryloyl)-4-(2-(((S)-1-(methyl-d3)pyrrolidin-2-yl)methoxy)-7-(8-(methyl-^14C)naphthalen-1-yl)-5,6,7,8-tetrahydropyrido[3,4-d]pyrimidin-4-yl)piperazin-2-yl)acetonitrile] | < 1000 nM
[2H]C([2H])([2H])c1cccc2cccc(N3CCc4c(nc(OC[C@@H]5CCCN5C)nc4N4CCN(C(=O)/C=C/CNC5CC5)[C@@H](C)C4)C3)c12 [Compound 3, (E)-4-(cyclopropylamino)-1-((S)-2-methyl-4-(7-(8-(methyl-d3)naphthalen-1-yl)-2-(((S)-1-methylpyrrolidin-2-yl)methoxy)-5,6,7,8-tetrahydropyrido[3,4-d]pyrimidin-4-yl)piperazin-1-yl)-2-buten-1-one] | < 1000 nM
C=C(F)C(=O)N1CCN(c2nc(OC[C@@H]3CCCN3C)nc3c2CCN(c2cccc4cccc([11CH3])c24)C3)C[C@@H]1CC#N [Compound 9, 2-((S)-1-(2-fluoroacryloyl)-4-(7-(8-(methyl-^11C)naphthalen-1-yl)-2-(((S)-1-methylpyrrolidin-2-yl)methoxy)-5,6,7,8-tetrahydropyrido[3,4-d]pyrimidin-4-yl)piperazin-2-yl)acetonitrile] | < 1000 nM
C=CC(=O)N1CCN(c2nc(OC[C@@H]3CCCN3[14CH3])nc3c2CCN(c2cccc4cccc(C)c24)C3)C[C@@H]1CC#N [Compound 39, 2-((S)-1-acryloyl-4-(2-(((S)-1-(methyl-^14C)pyrrolidin-2-yl)methoxy)-7-(8-methylnaphthalen-1-yl)-5,6,7,8-tetrahydropyrido[3,4-d]pyrimidin-4-yl)piperazin-2-yl)acetonitrile] | < 1000 nM
[2H]C([2H])([2H])c1cccc2cccc(N3CCc4c(nc(OC[C@@H]5CCCN5C)nc4N4CCN(C(=O)C(=C)F)C[C@@H]4C)C3)c12 [Compound 7, 2-fluoro-1-((S)-3-methyl-4-(7-(8-(methyl-d3)naphthalen-1-yl)-2-(((S)-1-methylpyrrolidin-2-yl)methoxy)-5,6,7,8-tetrahydropyrido[3,4-d]pyrimidin-4-yl)piperazin-1-yl)-2-propen-1-one] | < 1000 nM
C=CC(=O)N1CCN(c2nc(OC[C@@H]3CCCN3[11CH3])nc3c2CCN(c2cccc4cccc(C)c24)C3)C[C@@H]1CC#N [Compound 25, 2-((S)-1-acryloyl-4-(2-(((S)-1-(methyl-^11C)pyrrolidin-2-yl)methoxy)-7-(8-methylnaphthalen-1-yl)-5,6,7,8-tetrahydropyrido[3,4-d]pyrimidin-4-yl)piperazin-2-yl)acetonitrile] | < 1000 nM
C=C(F)C(=O)N1CCN(c2nc(OC[C@@H]3CCCN3C)nc3c2CCN(c2cccc4cccc([14CH3])c24)C3)C[C@@H]1CC#N [Compound 13, 2-((S)-1-(2-fluoroacryloyl)-4-(7-(8-(methyl-^14C)naphthalen-1-yl)-2-(((S)-1-methylpyrrolidin-2-yl)methoxy)-5,6,7,8-tetrahydropyrido[3,4-d]pyrimidin-4-yl)piperazin-2-yl)acetonitrile] | < 1000 nM
[2H]C([2H])([2H])CN1CCC[C@H]1COc1nc2c(c(N3CCN(C(=O)C=C)[C@@H](CC#N)C3)n1)CCN(c1cccc3cccc(C)c13)C2 [Compound 33, 2-((S)-1-acryloyl-4-(2-(((S)-1-(ethyl-2,2,2-d3)pyrrolidin-2-yl)methoxy)-7-(8-methylnaphthalen-1-yl)-5,6,7,8-tetrahydropyrido[3,4-d]pyrimidin-4-yl)piperazin-2-yl)acetonitrile] | < 1000 nM
[2H]C([2H])([2H])C([2H])(N1CCC[C@H]1COc1nc2c(c(N3CCN(C(=O)C=C)[C@@H](CC#N)C3)n1)CCN(c1cccc3cccc(Cl)c13)C2)C([2H])([2H])[2H] [Compound 38, 2-((S)-1-acryloyl-4-(7-(8-chloronaphthalene-1-yl)-2-(((S)-1-(isopropyl-d7)pyrrolidin-2-yl)methoxy)-5,6,7,8-tetrahydropyrido[3,4-d]pyrimidin-4-yl)piperazin-2-yl)acetonitrile] | < 1000 nM
[2H]C([2H])([2H])c1cccc2cccc(N3CCc4c(nc(OC[C@@H]5CCCN5C)nc4N4CCN(C(=O)C=C)C[C@@H]4C)C3)c12 [Compound 8, 1-((S)-3-methyl-4-(7-(8-(methyl-d3)naphthalen-1-yl)-2-(((S)-1-methylpyrrolidin-2-yl)methoxy)-5,6,7,8-tetrahydropyrido[3,4-d]pyrimidin-4-yl)piperazin-1-yl)-2-propen-1-one] | < 1000 nM
C=CC(=O)N1CCN(c2nc(OC[C@@H]3CCCN3C)nc3c2CCN(c2cccc4cccc([13CH3])c24)C3)C[C@@H]1CC#N [Compound 10, 2-((S)-1-acryloyl-4-(7-(8-(methyl-^13C)naphthalen-1-yl)-2-(((S)-1-methylpyrrolidin-2-yl)methoxy)-5,6,7,8-tetrahydropyrido[3,4-d]pyrimidin-4-yl)piperazin-2-yl)acetonitrile] | < 1000 nM
[2H]C([2H])([2H])N1CCC[C@H]1COc1nc2c(c(N3CCN(C(=O)C=C)[C@@H](CC#N)C3)n1)CCN(c1cncc3cccc([13CH3])c13)C2 [Compound 31, 2-((S)-1-acryloyl-4-(2-(((S)-1-(methyl-d3)pyrrolidine-2-yl)methoxy)-7-(5-(methyl-^13C)isoquinolin-4-yl)-5,6,7,8-tetrahydropyrido[3,4-d]pyrimidin-4-yl)piperazin-2-yl)acetonitrile] | < 1000 nM
